Source: patent publication US20140294905A1, “ANTIMICROBIAL TEXTILES” (BACTOGEN BIYOTEKNOLOJIK URUNLER SANAYI VE TICARET ANONIM …, priority 2011, published 2014)

How the values were obtained:
Escherichia coli [1] = assay: Antimicrobial tests of textiles on planted petri dishes; assay type: cell-based; parameters: key: + indicates that (antimicrobial) inhibition zones are observed around the textiles added with sodium borate (FIG. 1-8); details: in vitro, 37° C. for 24 hours
Procedure: (§1) Sodium borate-added textiles prepared with three different techniques and the unprocessed textiles to which sodium borate is not added are placed on the petri dishes planted with microorganisms and their antimicrobial efficiency is tested.
(§2) Sodium borate-added textiles fixed with methanol, textiles sprayed with sodium borate dissolved in pH-enhanced water and textiles dyed with water-based textile dye the base of which is prepared by the addition of sodium borate are tested. As a negative control, any possible impact which inhibits the growing of microorganisms on textiles which are not processed is observed. […] Tested antimicrobial activity is evaluated upon the measuring of the inhibition zone of the microorganisms handled. All tests are repeated at least twice.

MRSA = assay: as above; assay type: cell-based; parameters: key: + indicates that (antimicrobial) inhibition zones are observed around the textiles added with sodium borate (FIG. 1-8); details: in vitro, 37° C. for 24 hours
Procedure: as §1, §2

Pseudomonas aeruginosa [2] = assay: as above; assay type: cell-based; parameters: key: + indicates that (antimicrobial) inhibition zones are observed around the textiles added with sodium borate (FIG. 1-8); details: in vitro, 37° C. for 24 hours
Procedure: as §1, §2

Staphylococcus aureus [3] = assay: as above; assay type: cell-based; parameters: key: + indicates that (antimicrobial) inhibition zones are observed around the textiles added with sodium borate (FIG. 1-8); details: in vitro, 37° C. for 24 hours
Procedure: as §1, §2

Escherichia coli [4] = assay: Modified disc diffusion method; details: 36±1° C. for 24 hours
Procedure: (§3) A 100 μl solution containing 10^8 cfu/ml bacteria, 10^6 cfu/ml yeast and 10^4 spores/ml mould is prepared from new cultures and is inoculated respectively onto triptonic soy agar (TSA), Sabouraud Dextrose Agar (SDA) and Potato Dextrose Agar (PDA) through the use of diffusion method. 20 μl of sterile water is dropped onto empty discs and the discs are then dipped into sodium borate in powder format. Discs dipped into sodium borate are then placed on planted petri dishes. As a negative control, blank discs onto which 20 μl of sterile water is dropped are used. As a positive control, Ofloxacin (10 μg/disc) and nystatin (30 μg/disc) are respectively used for bacteria and fungi.
(§4) Planted petri dishes on which modified disc diffusion method is applied are kept at 36±1° C. for 24 hours for bacteria, at 36±1° C. for 48 hours for yeasts and at 25±1° C. for 72 hours for moulds. Antimicrobial activity inhibition zone (a zone where no microorganisms grow) is measured and evaluated for microorganisms tested with modified disc diffusion method. All tests are repeated at least twice.

Staphylococcus aureus [5] = assay: Modified disc diffusion method; details: 36±1° C. for 24 hours
Procedure: as §3, §4

Pseudomonas aeruginosa [6] = assay: Modified disc diffusion method; details: 36±1° C. for 24 hours
Procedure: as §3, §4

Candida albicans [7] = assay: Modified disc diffusion method; details: 36±1° C. for 48 hours
Procedure: as §3, §4

Candida glabrata [8] = assay: Modified disc diffusion method; details: 36±1° C. for 48 hours
Procedure: as §3, §4

Aspergillus niger [9] = assay: Modified disc diffusion method; details: 25±1° C. for 72 hours
Procedure: as §3, §4

Fusarium oxysporum [10] = assay: Modified disc diffusion method; details: 25±1° C. for 72 hours
Procedure: as §3, §4

Botrytis cinerea [11] = assay: Modified disc diffusion method; details: 25±1° C. for 72 hours
Procedure: as §3, §4

Penicillium vinaceum [12] = assay: Modified disc diffusion method; details: 25±1° C. for 72 hours
Procedure: as §3, §4

Penicillium expansum [13] = assay: Modified disc diffusion method; details: 25±1° C. for 72 hours
Procedure: as §3, §4

Aspergillus niger [14] = assay: Antimicrobial tests of textiles on planted petri dishes; assay type: cell-based; parameters: key: + indicates that (antimicrobial) inhibition zones are observed around the textiles added with sodium borate (FIG. 1-8); details: in vitro, room temperature for 72 hours
Procedure: as §1, §2

Botrytis cinerea [15] = assay: as above; assay type: cell-based; parameters: key: + indicates that (antimicrobial) inhibition zones are observed around the textiles added with sodium borate (FIG. 1-8); details: in vitro, room temperature for 72 hours
Procedure: as §1, §2

Candida albicans [16] = assay: as above; assay type: cell-based; parameters: key: + indicates that (antimicrobial) inhibition zones are observed around the textiles added with sodium borate (FIG. 1-8); details: in vitro, 37° C. for 48 hours
Procedure: as §1, §2

Candida glabrata [17] = assay: as above; assay type: cell-based; parameters: key: + indicates that (antimicrobial) inhibition zones are observed around the textiles added with sodium borate (FIG. 1-8); details: in vitro, 37° C. for 48 hours
Procedure: as §1, §2

Fusarium oxysporum [18] = assay: as above; assay type: cell-based; parameters: key: + indicates that (antimicrobial) inhibition zones are observed around the textiles added with sodium borate (FIG. 1-8); details: in vitro, room temperature for 72 hours
Procedure: as §1, §2

Penicillium expansum [19] = assay: as above; assay type: cell-based; parameters: key: + indicates that (antimicrobial) inhibition zones are observed around the textiles added with sodium borate (FIG. 1-8); details: in vitro, room temperature for 72 hours
Procedure: as §1, §2

Penicillium vinaceum [20] = assay: as above; assay type: cell-based; parameters: key: + indicates that (antimicrobial) inhibition zones are observed around the textiles added with sodium borate (FIG. 1-8); details: in vitro, room temperature for 72 hours
Procedure: as §1, §2

CC1COc2c(N3CCN(C)CC3)c(F)cc3c(=O)c(C(=O)O)cn1c23 (stereo not shown) [Ofloxacin]
+: Antimicrobial test result (inhibition zone around textile) (Escherichia coli [1]) | Antimicrobial test result (inhibition zone around textile) (MRSA) | Antimicrobial test result (inhibition zone around textile) (Pseudomonas aeruginosa [2]) | Antimicrobial test result (inhibition zone around textile) (Staphylococcus aureus [3]) | Antimicrobial effect (inhibition zone) (Escherichia coli [4]) | Antimicrobial effect (inhibition zone) (Staphylococcus aureus [5]) | Antimicrobial effect (inhibition zone) (Pseudomonas aeruginosa [6])

O.O.O.O.O.O.O.O.O.O.[Na+].[Na+].[O-]B1OB2OB([O-])OB(O1)O2 [Sodium Borate, sodium borate]
+: Antimicrobial effect (inhibition zone) (Escherichia coli [4]) | Antimicrobial effect (inhibition zone) (Staphylococcus aureus [5]) | Antimicrobial effect (inhibition zone) (Pseudomonas aeruginosa [6]) | Antimicrobial effect (inhibition zone) (Candida albicans [7]) | Antimicrobial effect (inhibition zone) (Candida glabrata [8]) | Antimicrobial effect (inhibition zone) (Aspergillus niger [9]) | Antimicrobial effect (inhibition zone) (Fusarium oxysporum [10]) | Antimicrobial effect (inhibition zone) (Botrytis cinerea [11]) | Antimicrobial effect (inhibition zone) (Penicillium vinaceum [12]) | Antimicrobial effect (inhibition zone) (Penicillium expansum [13])

C[C@@H]1[C@H](O)[C@@H](C)/C=C/C=C/CC/C=C/C=C/C=C/C=C/C(O[C@H]2O[C@H](C)[C@@H](O)[C@H](N)[C@@H]2O)CC2O[C@](O)(CC(O)C(O)CCC(O)CC(O)CC(O)CC(=O)O[C@H]1C)CC(O)C2C(=O)O (stereo partly shown) [Nystatin]
+: Antimicrobial test result (inhibition zone around textile) (Aspergillus niger [14]) | Antimicrobial test result (inhibition zone around textile) (Botrytis cinerea [15]) | Antimicrobial test result (inhibition zone around textile) (Candida albicans [16]) | Antimicrobial test result (inhibition zone around textile) (Candida glabrata [17]) | Antimicrobial test result (inhibition zone around textile) (Fusarium oxysporum [18]) | Antimicrobial test result (inhibition zone around textile) (Penicillium expansum [19]) | Antimicrobial test result (inhibition zone around textile) (Penicillium vinaceum [20]) | Antimicrobial effect (inhibition zone) (Candida albicans [7]) | Antimicrobial effect (inhibition zone) (Candida glabrata [8]) | Antimicrobial effect (inhibition zone) (Aspergillus niger [9]) | Antimicrobial effect (inhibition zone) (Fusarium oxysporum [10]) | Antimicrobial effect (inhibition zone) (Botrytis cinerea [11]) | Antimicrobial effect (inhibition zone) (Penicillium vinaceum [12]) | Antimicrobial effect (inhibition zone) (Penicillium expansum [13])
